# In publication PMC7614687, “Modulation of the substrate specificity of the kinase PDK1 by distinct conformations of the full-length protein*” (Science signaling, 2023):
# Biological target: T1, PDK1_1-556 (Homo sapiens, UniProt O15530)
# T1 construct: effect of HYG8 on the thermal stability (ΔTm) of PDK1_1-556 (H) and PDK1_50-359 (I); His (N); made in house; host or cells: Sf9 insect cells (baculovirus)
# T1 sequence (O15530 1-556): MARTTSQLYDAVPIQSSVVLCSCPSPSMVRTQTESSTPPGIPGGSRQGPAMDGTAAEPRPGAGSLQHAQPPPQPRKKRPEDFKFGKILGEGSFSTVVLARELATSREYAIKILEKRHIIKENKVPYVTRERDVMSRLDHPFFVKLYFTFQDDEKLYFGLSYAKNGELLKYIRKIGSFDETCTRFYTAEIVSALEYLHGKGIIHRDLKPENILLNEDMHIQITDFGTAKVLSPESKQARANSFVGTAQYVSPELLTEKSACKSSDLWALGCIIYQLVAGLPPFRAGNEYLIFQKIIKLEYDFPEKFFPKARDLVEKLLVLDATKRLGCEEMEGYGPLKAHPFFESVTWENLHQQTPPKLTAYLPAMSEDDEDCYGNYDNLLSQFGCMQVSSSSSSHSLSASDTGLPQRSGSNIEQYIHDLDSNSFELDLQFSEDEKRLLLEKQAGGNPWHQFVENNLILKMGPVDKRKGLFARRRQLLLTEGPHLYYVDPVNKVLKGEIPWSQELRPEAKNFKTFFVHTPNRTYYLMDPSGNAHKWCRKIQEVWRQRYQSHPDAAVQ
# Experiment: PDK1-mediated activation/phosphorylation of Akt and SGK in vitro (cascade format, Western blot)
# Assay type: biochemical
# Conditions: absence of PIP3, HYG8 1 μM
# Protocol: PDK1 activity was also assessed in a cascade format that measures the ability of PDK1 to activate its substrates GST-ΔN-SGK [S422D], GST-Akt [S473D] and GST-Akt ΔPH [S473D], as previously performed ([24], [28]). SGK and Akt proteins mutated at the HM phosphorylation site to Asp can be activated by phosphorylation at the activation loop by PDK1. In brief, we preincubated SGK or Akt (0.5 μg) with 10 ng or 100 ng of PDK1 at room temperature (22°C) in a buffer containing 50 mM Tris pH 7.5, 0.05 mg/ml BSA, 0.1% β-mercaptoethanol, 10 mM MgCl2, 100 μM ATP (20 μl). We measured the activity of SGK or Akt by adding 30 μl buffer containing the polypeptide substrate KK-Crosstide ([…]; 100 μM) and [γ^32P]ATP (100 μM). […]
# PDK1 activity was also measured by incubating PDK1 with protein kinase substrates and measuring their phosphorylation by Western blot using phospho-specific antibodies to the activation loop phosphorylation site, essentially as previously performed ([24]), with the modification that the secondary antibodies were fluorescent for improved quantification. […] The basal phosphorylation of substrates was determined in the absence of PDK1, while “maximal” phosphorylation corresponds to the phosphorylation of substrates with excess PDK1 (10 nM PDK1 for Akt/PKB substrates and 1 nM PDK1 for SGK). […] Fluorescent signals were measured using Odyssey Fc (Licor). […]
compound,measurement,value
"O=C(O[C@H]1[C@@H](OP(=O)(O)O)[C@H](OP(=O)(O)O)[C@@H](OP(=O)(O)O)[C@H](OP(=O)(O)O)[C@H]1OP(=O)(O)O)c1ccccc1 [HYG8, 2-O-benzoyl-IP5]",activation of Akt and Akt ΔPH by PDK1,selectively inhibited
same,activation of SGK by PDK1,did not inhibit
